Reference: ChEMBL document CHEMBL1201862, “PubChem BioAssay data set” (2004)
Calls of active or inactive are those of the source.

Experiments:
Fatty acid synthase [1] = target: T1, Fatty acid synthase (Homo sapiens, UniProt P49327); experiment: inhibition of human FAS-TE enzyme activity – biochemical, endpoint fluorescence intensity, uHTS hits, dose response (AID 624327); assay type: functional;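 note: fluorescence from hydrolysis of an O-methyl fluorescein acyl ester substrate by the enzyme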
Fatty acid synthase [2] = target: T1, Fatty acid synthase; experiment: inhibition of human FAS-TE enzyme activity – biochemical, kinetic fluorescence intensity, dose response (AID 624326); assay type: functional;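 note: rate of fluorescence rise from hydrolysis of a fluorogenic O-methyl fluorescein ester substrate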
[3] = microbe, parasite or virus in culture; assay type: functional; details: Mycobacterium tuberculosis
[4] = target: T2, Ubiquitin-conjugating enzyme E2 N (Homo sapiens, UniProt P61088); assay type: functional;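 note: Dose-response confirmation in a TR-FRET assay detecting UBC13-driven polyubiquitin chain formation, inhibition measured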
T2 sequence (P61088 whole entry): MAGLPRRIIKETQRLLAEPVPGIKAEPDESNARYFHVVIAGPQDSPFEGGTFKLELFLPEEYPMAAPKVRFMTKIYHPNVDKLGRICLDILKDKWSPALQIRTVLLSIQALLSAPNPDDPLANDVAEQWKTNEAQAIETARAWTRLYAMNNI

[5] = blockers of HIV-1 envelope-mediated cell-cell fusion – cherry-pick, dose response (AID 652057); assay type: functional, cell-based
[6] = blockers of HIV-1 ZM109 envelope-driven cell-cell fusion – HeLa effector, CEM target cells, luciferase, cherry-pick, dose response (AID 652058); assay type: functional, cell-based;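 note: luciferase signal from HIV-1 Env mediated cell-cell fusion of effector and target cells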
[7] = HIV-1 AD8 envelope cell-cell fusion blockers – cherry-pick, dose response (AID 652062); assay type: functional, cell-based;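 note: luciferase signal from cell-cell fusion driven by HIV-1 clade B AD8 Env; potency is for inhibitors of fusion seen as a drop in luminescence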
Nonstructural protein 1 = Nonstructural protein 1 (Influenza A virus, UniProt Q194T2); assay type: functional, Influenza A virus (A/California/07/2009(H1N1))
Sequence of Nonstructural protein 1 (Q194T2 whole entry): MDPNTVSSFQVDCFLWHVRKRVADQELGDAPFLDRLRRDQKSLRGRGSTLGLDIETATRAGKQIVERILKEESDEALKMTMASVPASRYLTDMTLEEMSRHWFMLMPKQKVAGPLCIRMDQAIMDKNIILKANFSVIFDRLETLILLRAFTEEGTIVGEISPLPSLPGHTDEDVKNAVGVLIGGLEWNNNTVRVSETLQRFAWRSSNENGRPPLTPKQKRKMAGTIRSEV

H9c2 = experiment: cells; assay type: functional, cell-based; details: Rattus norvegicus, H9c2, Myocardium;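 note: confirmatory concentration-response retest of ultra-high-throughput screening hits for modulation of myocardial damage; cell death induced by hydrogen peroxide oxidative stress; compound pretreatment for 60 min then peroxide exposure for 2 h; potency is for protecting the cells against peroxide damage rather than for killing them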
[8] = target: Induced myeloid leukemia cell differentiation protein Mcl-1 (Homo sapiens, UniProt Q07820); assay type: functional
Sequence of Induced myeloid leukemia cell differentiation protein Mcl-1 (Q07820 whole entry): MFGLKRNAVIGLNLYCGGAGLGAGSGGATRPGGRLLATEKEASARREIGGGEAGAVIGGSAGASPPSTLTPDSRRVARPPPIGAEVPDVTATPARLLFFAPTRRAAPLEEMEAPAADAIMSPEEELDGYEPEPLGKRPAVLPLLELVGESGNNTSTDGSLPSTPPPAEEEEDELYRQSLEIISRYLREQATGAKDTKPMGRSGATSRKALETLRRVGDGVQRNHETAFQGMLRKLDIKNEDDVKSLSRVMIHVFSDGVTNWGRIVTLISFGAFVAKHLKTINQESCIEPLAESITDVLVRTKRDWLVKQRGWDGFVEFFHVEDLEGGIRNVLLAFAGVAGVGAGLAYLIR

Aminopeptidase N = target: T3, Aminopeptidase N (Plasmodium falciparum FcB1/Columbia, UniProt O96935); experiment: malaria alanyl aminopeptidase activity blockers – biochemical, fluorogenic H-Leu-NHMec substrate, 1536-well (AID 1445); parameters: species or system Plasmodium falciparum 3D7, 3D7
T3 sequence (O96935 whole entry): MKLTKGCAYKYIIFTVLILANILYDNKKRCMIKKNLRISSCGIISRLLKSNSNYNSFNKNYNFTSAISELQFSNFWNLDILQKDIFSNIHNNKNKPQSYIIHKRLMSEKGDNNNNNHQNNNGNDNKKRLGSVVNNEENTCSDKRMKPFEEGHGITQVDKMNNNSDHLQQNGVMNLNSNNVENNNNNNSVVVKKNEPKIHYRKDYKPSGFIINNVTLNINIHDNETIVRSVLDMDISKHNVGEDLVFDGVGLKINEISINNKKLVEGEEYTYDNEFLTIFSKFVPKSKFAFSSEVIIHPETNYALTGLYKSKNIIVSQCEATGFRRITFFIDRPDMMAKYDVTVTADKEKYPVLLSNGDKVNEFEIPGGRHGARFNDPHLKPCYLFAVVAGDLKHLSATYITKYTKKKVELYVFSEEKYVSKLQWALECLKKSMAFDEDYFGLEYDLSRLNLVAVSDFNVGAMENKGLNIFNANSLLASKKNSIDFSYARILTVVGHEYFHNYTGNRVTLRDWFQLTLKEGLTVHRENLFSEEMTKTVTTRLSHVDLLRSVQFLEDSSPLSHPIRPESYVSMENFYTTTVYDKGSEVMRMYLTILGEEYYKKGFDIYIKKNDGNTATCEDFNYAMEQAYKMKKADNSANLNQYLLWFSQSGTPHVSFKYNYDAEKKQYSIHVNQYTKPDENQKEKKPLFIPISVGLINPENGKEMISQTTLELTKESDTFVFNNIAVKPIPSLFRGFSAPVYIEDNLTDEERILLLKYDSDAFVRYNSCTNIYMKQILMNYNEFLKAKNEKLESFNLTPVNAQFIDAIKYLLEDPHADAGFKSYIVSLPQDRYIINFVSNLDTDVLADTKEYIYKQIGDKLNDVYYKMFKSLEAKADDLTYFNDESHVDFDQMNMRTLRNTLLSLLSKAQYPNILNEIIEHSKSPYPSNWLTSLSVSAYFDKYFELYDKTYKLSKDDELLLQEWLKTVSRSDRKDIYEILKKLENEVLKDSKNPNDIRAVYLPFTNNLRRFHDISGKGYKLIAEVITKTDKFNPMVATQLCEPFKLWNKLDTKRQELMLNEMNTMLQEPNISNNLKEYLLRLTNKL

[9] = NIH-3T3 fibroblast cytotoxicity, dose response, cytotoxicity control, cell-based, fluorescence, Alamar Blue, secondary assay (AID 2327); assay type: functional;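 note: NIH-3T3 mouse fibroblasts cultured with fluconazole at 8 µg/mL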
[10] = fluconazole-exposed Candida albicans growth modulators – fluorescence, retest, confirmation (AID 2467); assay type: functional, cell-based

T1 sequence (P49327 whole entry): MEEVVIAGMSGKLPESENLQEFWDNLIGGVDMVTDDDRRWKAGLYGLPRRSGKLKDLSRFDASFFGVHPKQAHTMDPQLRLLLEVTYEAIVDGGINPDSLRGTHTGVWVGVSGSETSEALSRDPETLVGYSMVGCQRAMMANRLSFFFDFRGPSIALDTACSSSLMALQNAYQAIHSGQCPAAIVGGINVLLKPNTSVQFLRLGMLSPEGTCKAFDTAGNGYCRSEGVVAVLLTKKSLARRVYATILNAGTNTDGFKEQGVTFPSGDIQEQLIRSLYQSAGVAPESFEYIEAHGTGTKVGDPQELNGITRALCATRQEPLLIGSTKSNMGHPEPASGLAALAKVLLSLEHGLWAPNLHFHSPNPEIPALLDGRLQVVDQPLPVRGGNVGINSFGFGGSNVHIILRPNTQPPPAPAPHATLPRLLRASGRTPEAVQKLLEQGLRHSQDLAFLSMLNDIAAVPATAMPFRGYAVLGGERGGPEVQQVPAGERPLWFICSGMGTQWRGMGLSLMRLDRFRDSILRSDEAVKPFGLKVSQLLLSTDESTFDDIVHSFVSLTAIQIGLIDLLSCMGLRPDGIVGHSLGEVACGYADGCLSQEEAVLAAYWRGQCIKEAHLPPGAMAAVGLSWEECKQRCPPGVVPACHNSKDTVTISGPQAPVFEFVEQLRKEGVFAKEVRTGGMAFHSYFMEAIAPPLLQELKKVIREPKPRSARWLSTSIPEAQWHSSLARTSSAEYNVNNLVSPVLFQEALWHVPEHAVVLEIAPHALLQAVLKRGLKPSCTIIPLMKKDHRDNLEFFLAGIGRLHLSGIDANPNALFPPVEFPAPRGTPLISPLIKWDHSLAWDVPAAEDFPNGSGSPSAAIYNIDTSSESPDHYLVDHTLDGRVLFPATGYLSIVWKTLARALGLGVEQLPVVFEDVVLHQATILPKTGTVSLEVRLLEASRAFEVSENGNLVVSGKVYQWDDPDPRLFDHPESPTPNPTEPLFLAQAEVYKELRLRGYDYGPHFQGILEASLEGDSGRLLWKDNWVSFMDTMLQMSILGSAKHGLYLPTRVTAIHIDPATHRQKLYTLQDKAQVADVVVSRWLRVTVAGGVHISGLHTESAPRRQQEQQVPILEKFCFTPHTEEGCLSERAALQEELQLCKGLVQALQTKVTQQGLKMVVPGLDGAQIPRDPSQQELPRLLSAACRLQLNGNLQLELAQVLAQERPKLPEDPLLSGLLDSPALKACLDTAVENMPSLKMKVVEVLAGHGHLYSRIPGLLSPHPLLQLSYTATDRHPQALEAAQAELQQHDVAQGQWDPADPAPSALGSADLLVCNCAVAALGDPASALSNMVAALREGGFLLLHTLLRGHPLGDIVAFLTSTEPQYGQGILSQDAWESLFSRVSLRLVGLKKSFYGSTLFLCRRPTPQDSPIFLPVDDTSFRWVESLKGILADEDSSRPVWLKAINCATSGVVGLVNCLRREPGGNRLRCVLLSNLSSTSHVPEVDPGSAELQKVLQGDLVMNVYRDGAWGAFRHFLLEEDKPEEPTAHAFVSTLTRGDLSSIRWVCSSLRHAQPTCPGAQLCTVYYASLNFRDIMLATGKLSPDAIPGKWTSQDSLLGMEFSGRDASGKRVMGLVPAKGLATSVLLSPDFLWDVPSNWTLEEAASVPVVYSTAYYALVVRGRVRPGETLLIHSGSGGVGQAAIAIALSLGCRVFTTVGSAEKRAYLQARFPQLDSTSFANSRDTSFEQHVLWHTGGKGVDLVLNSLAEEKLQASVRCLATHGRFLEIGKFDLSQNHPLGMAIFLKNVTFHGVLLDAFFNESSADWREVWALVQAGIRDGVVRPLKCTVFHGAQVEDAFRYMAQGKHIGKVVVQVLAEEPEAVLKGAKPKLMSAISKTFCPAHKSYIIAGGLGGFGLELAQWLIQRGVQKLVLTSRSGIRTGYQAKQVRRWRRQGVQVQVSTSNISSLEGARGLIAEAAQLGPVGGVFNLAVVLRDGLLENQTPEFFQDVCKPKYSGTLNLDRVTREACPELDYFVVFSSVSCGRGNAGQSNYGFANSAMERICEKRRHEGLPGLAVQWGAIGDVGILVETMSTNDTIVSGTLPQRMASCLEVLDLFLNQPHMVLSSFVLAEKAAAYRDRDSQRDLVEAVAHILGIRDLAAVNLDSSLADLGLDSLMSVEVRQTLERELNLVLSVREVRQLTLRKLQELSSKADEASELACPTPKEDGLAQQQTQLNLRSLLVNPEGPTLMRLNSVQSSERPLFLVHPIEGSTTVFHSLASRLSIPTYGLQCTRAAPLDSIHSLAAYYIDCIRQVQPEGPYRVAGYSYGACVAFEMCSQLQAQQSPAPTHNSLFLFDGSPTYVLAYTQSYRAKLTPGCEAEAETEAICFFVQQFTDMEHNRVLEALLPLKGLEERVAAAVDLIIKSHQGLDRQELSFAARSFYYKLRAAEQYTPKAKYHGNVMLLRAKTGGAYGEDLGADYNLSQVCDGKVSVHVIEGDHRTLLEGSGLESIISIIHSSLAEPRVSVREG

SMILES: CC1(C)CC(=O)C=C(c2ccc(-c3cnn(Cc4ccccc4)c3)cc2)C1=O
- IC50 (Fatty acid synthase [1]): 8.34 µM (active)
- IC50 (Fatty acid synthase [2]): 8.05 µM (active)

SMILES: C[C@@H]1CCCCCCCCC(=O)OCCN[C@H](C)CCCCCCCCC(=O)OCCN[C@H](C)CCCCCCCCC(=O)OCCN1
- CC50 [3]: 26.5 µM (active)
- IC50 [4]: > 20 µM (inactive)

SMILES: CC(C)NC(=O)Nc1ccc2c(c1)CC(=O)N([C@H](C)CO)C[C@H](C)[C@H](CN(C)S(=O)(=O)c1ccccc1)O2
- AC50 [5]: 8.61 µM (active)
- AC50 [6]: 10.7 µM (active)
- AC50 [7]: 35.9 µM (active)

SMILES: O=C(COc1cc(F)ccc1[N+](=O)[O-])Nc1ccc(N2CCCCC2)cc1
- IC50 (Nonstructural protein 1): 21.3 µM (active)

SMILES: C[C@@]12C(=O)Nc3cc(F)ccc3C(=O)N1[C@H]1c3ccccc3OC[C@@H]1[C@@H]2c1ccccc1
- IC50 (Fatty acid synthase [1]): 18.1 µM (active)
- IC50 (Fatty acid synthase [2]): 20.3 µM (inactive)

SMILES: CCOc1ccc(C(C(=O)NCC2CCCO2)N(C(=O)c2snc(C(N)=O)c2N)c2ccccc2F)cc1 (stereo not given)
- IC50 [4]: > 20 µM (inactive)
- IC50 (H9c2): > 79 µM (inactive)

SMILES: Cc1cccc(NC(=O)CN2C(=O)N/C(=C/c3ccc(C)o3)C2=O)c1
- IC50 [8]: < 0.4 µM (not active)

SMILES: CC(=O)Nc1ccc(S(=O)(=O)Nc2nc3ccccc3nc2Nc2ccccc2)cc1
- IC50 (Aminopeptidase N): 94.9 µM (active)

SMILES: O=C(Nc1cccc(C(=O)O)c1)/C(=C/c1cccc([N+](=O)[O-])c1)NC(=O)c1cccc(Br)c1
- IC50 (Fatty acid synthase [1]): 19.4 µM (active)
- IC50 (Fatty acid synthase [2]): 13.2 µM (active)

SMILES: O=C(N/N=C/c1ccc(Cl)cc1Cl)Nc1ccccc1
- EC50 [9]: > 160 µM (inactive)
- EC50 [10]: > 38 µM (not active)

SMILES: Cc1ccc(C(=O)Nc2ccc(N3CCCC3)cc2)c(C)c1
- IC50 [8]: 7.06 µM (not active)

SMILES: COc1ccc(OC)c(-n2c(CN3CCC(C(N)=O)CC3)nc3ccccc3c2=O)c1
- EC50 [9]: > 150 µM (inactive)
- EC50 [10]: 3.29 µM (active)

SMILES: COc1cccc(-n2c(CN3CCN(c4ccccc4)CC3)nc3ccc([N+](=O)[O-])cc3c2=O)c1
- IC50 (Fatty acid synthase [1]): 4.81 µM (active)
- IC50 (Fatty acid synthase [2]): 7.99 µM (active)

SMILES: COc1ccccc1C(=O)N=Nc1c(O)[nH]c2ccc([N+](=O)[O-])cc12
- IC50 [8]: 2.92 µM (active)

SMILES: CCSC1=NC(=O)/C(=C2/C=Cc3ccccc3N2CC)S1
- IC50 (Nonstructural protein 1): 9.25 µM (active)

SMILES: Cc1c(C(=O)OCCOc2ccc(Br)cc2)sc(=S)n1C
- IC50 (Fatty acid synthase [1]): 7.07 µM (active)
- IC50 (Fatty acid synthase [2]): 5.67 µM (active)

SMILES: CCCOC(=O)/C(=C\c1ccc([N+](=O)[O-])o1)NC(=O)c1ccccc1
- EC50 [9]: > 160 µM (inactive)
- EC50 [10]: 0.174 µM (active)
- CC50 [3]: 35.1 µM (active)
